Test results taken from PubChem BioAssay (NCI).
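Test compounds were applied to cells in 96-well plates for 48 hours at 5 doses. GI50 = concentration required for 50% inhibition of growth. At the TGI there is no net growth.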

Key:
Assay in all cases: NCI-60 cell line screen, 48 h
CAKI-1 renal = system: CAKI-1 renal
DU-145 prostate = system: DU-145 prostate
MOLT-4 leukemia = system: MOLT-4 leukemia
SNB-75 CNS = system: SNB-75 CNS
SW-620 colon = system: SW-620 colon
RPMI-8226 leukemia = system: RPMI-8226 leukemia
SF-295 CNS = system: SF-295 CNS
SR leukemia = system: SR leukemia
CCRF-CEM leukemia = system: CCRF-CEM leukemia
K-562 leukemia = system: K-562 leukemia

Row | SMILES | GI50 (CAKI-1 renal) | TGI (CAKI-1 renal) | GI50 (DU-145 prostate) | TGI (DU-145 prostate) | GI50 (MOLT-4 leukemia) | TGI (MOLT-4 leukemia) | GI50 (SNB-75 CNS) | TGI (SNB-75 CNS) | GI50 (SW-620 colon) | TGI (SW-620 colon) | GI50 (RPMI-8226 leukemia) | TGI (RPMI-8226 leukemia) | GI50 (SF-295 CNS) | TGI (SF-295 CNS) | GI50 (SR leukemia) | TGI (SR leukemia) | GI50 (CCRF-CEM leukemia) | TGI (CCRF-CEM leukemia) | GI50 (K-562 leukemia) | TGI (K-562 leukemia)
1 | C=C1CCC2(C#N)[C@H]3[C@H](CC[C@@H]2C)[C@@H](C)C[C@@H](CC(C)(C)NC(=O)CN2CCC2=O)[C@H]13 (stereo not given in full) | 10.1 µM | 28.8 µM | 12.1 µM | 41.1 µM | 13.8 µM | 70.3 µM | 1570 nM | 10.2 µM | 11.3 µM | 32.3 µM | 2.87 µM | 15.9 µM | 3.27 µM | 13.4 µM | 4.02 µM | 23.6 µM | 12.8 µM | 80.3 µM | 3.69 µM | 53.1 µM
2 | O=C1CCC(N2C(=O)c3ccccc3C2=O)C(=O)N1 (stereo not given) |  | > 100 µM |  | > 100 µM |  | > 100 µM |  | > 100 µM |  | > 100 µM |  | > 100 µM |  | > 100 µM |  | > 100 µM |  | > 100 µM |  | > 100 µM
3 | CC1=Nc2ccccc2/C1=C\c1c(C)[nH]c2ccccc12 |  | 29.1 µM |  | 31.2 µM |  | 40.2 µM |  | 71.5 µM |  | 28.5 µM |  | 88.1 µM |  | 43 µM |  | 47.5 µM |  | > 100 µM |  | > 100 µM
4 | CC1=Cc2ccc(C)cc2C(=O)C1=O |  | 36.3 µM |  | 35.3 µM |  | 6.13 µM |  | 21.8 µM |  | > 100 µM |  | 7.34 µM |  | 34.7 µM |  | 4.38 µM |  | 1.98 µM |  | > 23.9 µM
5 | COc1cc2c(cc1OC)C(=O)/C(=C/c1cc(-c3ccc4c(c3)OCO4)n[nH]1)C2 | 1.5 µM | 3 µM | 1.45 µM | 2.86 µM | 2.57 µM | 6.97 µM | 1650 nM | 3.02 µM | 1.35 µM | 3.47 µM | 0.233 µM | 0.623 µM | 1.64 µM | 3.26 µM | 0.627 µM | 4.11 µM | 1.14 µM | 3.61 µM | 1.59 µM | > 100 µM
6 | C=C1C(=O)OC2CC(C)C3CC(O)OC(OCC)C3(C)CC12 (stereo not given) |  | 42.9 µM |  | > 100 µM |  | 56.4 µM |  | 50.8 µM |  | 19 µM |  | 51 µM |  | 90.6 µM |  | > 63.1 µM |  | > 100 µM |  | > 57.4 µM
7 | Cc1nc(Nc2cccnc2)sc1C(=O)/C=C/c1ccc(Cl)cc1 | 3.15 µM | 15.1 µM | 3.57 µM | 19.8 µM | 3.49 µM | > 100 µM | 2820 nM | 14.7 µM | 2.08 µM | 4.75 µM | 2.5 µM | 9.03 µM | 2.79 µM | 19.1 µM | 2.3 µM | > 100 µM | 3.31 µM | > 100 µM | 2.62 µM | > 100 µM
8 | CCN(c1cc(-c2ccc(CN3CCOCC3)cc2)cc(C(=O)NCc2c(C)cc(C)[nH]c2=O)c1C)C1CCOCC1 | 20.3 µM | > 100 µM | 40.6 µM | > 100 µM | 21.6 µM | 93.8 µM | 16700 nM | > 91.9 µM | 20.7 µM | 52.4 µM | 20 µM | > 59.8 µM | 26.2 µM | 71.3 µM | 21.7 µM | 58.2 µM | 30.6 µM | > 85.4 µM | 32.6 µM | > 100 µM
9 | Cc1nc2ccc(NC(=O)CCNC(=O)CCCc3ccc(CC(C(=O)O)C(=O)O)cc3)cc2s1 | > 100 µM | > 100 µM | > 100 µM | > 100 µM | > 100 µM | > 100 µM | > 100000 nM | > 100 µM | > 100 µM | > 100 µM | > 100 µM | > 100 µM | > 100 µM | > 100 µM | > 100 µM | > 100 µM | > 100 µM | > 100 µM | > 100 µM | > 100 µM
10 | Cc1c2c(c(C)c3c4c(oc13)CCCC4)C=NCC2 |  | 28 µM |  | 28.5 µM |  | 45.1 µM |  | 32.4 µM |  | 59.3 µM |  | 43 µM |  | 31.7 µM |  | 23.4 µM |  | 29.4 µM |  | 37.4 µM
11 | CN(C)CCSS(=O)(=O)O |  | > 100 µM |  | > 100 µM |  | > 100 µM |  | > 100 µM |  | > 100 µM |  | > 100 µM |  | 94.4 µM |  | > 100 µM |  | > 100 µM |  | > 100 µM
12 | O=C1CC(c2[nH]nc3ccccc23)C(=O)N1c1ccccc1 (stereo not given) |  | > 100 µM |  | > 100 µM |  | > 100 µM |  | > 100 µM |  | > 100 µM |  | > 100 µM |  | > 100 µM |  | > 100 µM |  | > 71.8 µM |  | > 80.1 µM
13 | O=C1/C(=C/c2ccccc2)CN(C(=O)CCN2CCCC2)C/C1=C\c1ccccc1 |  | 14.8 µM |  | 18.1 µM |  | 1.68 µM |  | 13.5 µM |  | 0.511 µM |  | 2.46 µM |  | 2.6 µM |  | 1.07 µM |  | 1.06 µM |  | 4.69 µM
14 | Cn1cc(C2=C(c3cn(C)c4ccc(Cl)cc34)C(=O)NC2=O)c2ccccc21 | 2.75 µM | > 23.7 µM | 8.45 µM | > 25 µM | 2.17 µM | 14.9 µM | 709 nM | > 17.3 µM | 1.38 µM | > 25 µM | 5.68 µM | 17.2 µM | 1.6 µM | 8.02 µM | 1.18 µM | 16.2 µM | 1.18 µM | 19.2 µM | 1.35 µM | > 25 µM
15 | O=C(NCCc1ccccn1)OCc1nc2nc(Cl)nc(N3CCOCC3)c2[nH]1 | 1.36 µM | 3.04 µM | 1.57 µM | 3.04 µM | 3 µM | 9.5 µM | 2420 nM | 15.5 µM | 1.7 µM | 4.25 µM | 1.62 µM | 5.63 µM | 4.96 µM | 17.4 µM | 1.97 µM | > 100 µM | 2.18 µM | 9.74 µM | 2.07 µM | 14.3 µM
16 | OCc1ccc(-c2cscc2-c2ccc(CO)o2)o1 | 5 µM | > 100 µM | 25.9 µM | > 100 µM | > 100 µM | > 100 µM | 34500 nM | > 100 µM | 7.14 µM | > 100 µM | 28.4 µM | > 100 µM | 0.923 µM | 20.3 µM | > 100 µM | > 100 µM | > 100 µM | > 100 µM | 7.02 µM | > 100 µM
17 | Cc1nc2c(n1C)C(=O)c1ccccc1C2=O | 29.4 µM | > 100 µM | 51.3 µM | > 100 µM | 85 µM | > 100 µM | > 100000 nM | > 100 µM | 52 µM | > 100 µM | > 100 µM | > 100 µM | 10.8 µM | 72.3 µM | 48.9 µM | > 100 µM | 59.3 µM | > 100 µM | 59.3 µM | > 100 µM
